Test results taken from EP0908457B1, “3-(1,2-benzisothiazol- and isoxazol-5-Y1)-2,4(1H,3H)-pyrimidinedione or thione and 3-(1,2-benzisothiazol- and isoxazol-5-y1)-4(3H)-pyrimidinone or thione herbicidal agents” (BASF AKTIENGESELLSCHAFT, priority 1997, dated 1999).

Key:
[1] = tested on: Oryza sativa, (L.) Tebonnet; experiment: Rice tolerance to post-transplant applications under flooded paddy conditions (Example 187), ORYSAT (Rice, Tebonnet); details: rated three to four weeks after treatment
[2] = tested on: Cyperus serotinus, Rottb.; experiment: Preemergence weed control under flooded paddy conditions, CYPSE (Flatsedge); assay type: in vivo; details: preemergence, rated three to four weeks after treatment
[3] = tested on: Monochoria vaginalis, Presl.; experiment: Preemergence weed control under flooded paddy conditions, MOOVA (Monochoria); assay type: in vivo; details: preemergence, flooded paddy, rated three to four weeks after treatment
Sagittaria pygmaea, L. = experiment: Preemergence weed control under flooded paddy conditions, SAGPY (Arrowhead (Pygmaea)); assay type: in vivo; details: preemergence, flooded paddy, rated three to four weeks after treatment
[4] = tested on: Echinochloa oryzoides (Ard.) Fritsch.; experiment: Preemergence weed control under flooded paddy conditions, ECHORC (Watergrass (Calif.)); assay type: in vivo; details: preemergence, flooded paddy, rated three to four weeks after treatment
Cyperus iria = experiment: Preemergence weed control under flooded paddy conditions, CYPIR (Rice Flatsedge); assay type: in vivo; details: preemergence, flooded paddy, rated three to four weeks after treatment

With `Cn1c(C(F)(F)F)cc(=O)n(-c2ccc3snc(COCOCc4ccccc4)c3c2)c1=O` [Example 461, 2,4(1H,3H)-Pyrimidinedione, 3-{3-{[(benzyloxy)-methoxy]methyl}-1,2-benzisothiazol-5-yl}-1-methyl-6-(trifluoromethyl)-] the “ORYSAT herbicidal rating (rice tolerance)” value (“ORYSAT herbicidal rating” for short) ([1]; 0.0320 kg/ha) was 5.0, the “ORYSAT herbicidal rating” value ([1]; 0.0620 kg/ha) was 5.0 and the “ORYSAT herbicidal rating” value ([1]; 0.1250 kg/ha) was 5.0. The “ORYSAT herbicidal rating” value ([1]; 0.2500 kg/ha) was 6.0, the CYPSE herbicidal rating ([2]; 0.0320 kg/ha) was 0.0 and the CYPSE herbicidal rating ([2]; 0.2500 kg/ha) was 7.0. It also gave an MOOVA herbicidal rating ([3]; 0.0320 kg/ha) of 7.0, an MOOVA herbicidal rating ([3]; 0.0620 kg/ha) of 7.0 and an MOOVA herbicidal rating ([3]; 0.1250 kg/ha) of 9.0. The MOOVA herbicidal rating ([3]; 0.2500 kg/ha) was 9.0, the SAGPY herbicidal rating (Sagittaria pygmaea, L.; 0.0320 kg/ha) was 2.0 and the SAGPY herbicidal rating (Sagittaria pygmaea, L.; 0.0620 kg/ha) was 3.0. For the same compound, the SAGPY herbicidal rating (Sagittaria pygmaea, L.; 0.1250 kg/ha) was 4.0, the SAGPY herbicidal rating (Sagittaria pygmaea, L.; 0.2500 kg/ha) was 6.0 and the ECHORC herbicidal rating ([4]; 0.0320 kg/ha) was 9.0. For the same compound, the ECHORC herbicidal rating ([4]; 0.0620 kg/ha) was 9.0, the ECHORC herbicidal rating ([4]; 0.1250 kg/ha) was 9.0 and the ECHORC herbicidal rating ([4]; 0.2500 kg/ha) was 9.0. For the same compound, the CYPIR herbicidal rating (Cyperus iria; 0.0320 kg/ha) was 6.0, the CYPIR herbicidal rating (Cyperus iria; 0.0620 kg/ha) was 9.0 and the CYPIR herbicidal rating (Cyperus iria; 0.1250 kg/ha) was 9.0. For the same compound, the CYPIR herbicidal rating (Cyperus iria; 0.2500 kg/ha) was 9.0.
`COc1ccc(C)cc1-c1nsc2cc(F)c(-n3c(=O)cc(C(F)(F)F)n(C)c3=O)cc12` [Example 462, 2,4(1H,3H)-Pyrimidinedione, 3-[6-fluoro-3-(6-methoxy-m-tolyl)-1,2-benzisothiazol-5-yl]-1-methyl-6-(trifluoromethyl)-] was tested, and the “ORYSAT herbicidal rating” value ([1]; 0.0320 kg/ha) was 5.0, the “ORYSAT herbicidal rating” value ([1]; 0.0620 kg/ha) was 5.0 and the “ORYSAT herbicidal rating” value ([1]; 0.2500 kg/ha) was 6.0. It also gave a CYPSE herbicidal rating ([2]; 0.0620 kg/ha) of 3.0, an MOOVA herbicidal rating ([3]; 0.0320 kg/ha) of 9.0 and an MOOVA herbicidal rating ([3]; 0.0620 kg/ha) of 9.0. The MOOVA herbicidal rating ([3]; 0.1250 kg/ha) was 9.0, the MOOVA herbicidal rating ([3]; 0.2500 kg/ha) was 9.0 and the SAGPY herbicidal rating (Sagittaria pygmaea, L.; 0.0320 kg/ha) was 1.0. For the same compound, the SAGPY herbicidal rating (Sagittaria pygmaea, L.; 0.0620 kg/ha) was 4.0, the SAGPY herbicidal rating (Sagittaria pygmaea, L.; 0.1250 kg/ha) was 5.0 and the SAGPY herbicidal rating (Sagittaria pygmaea, L.; 0.2500 kg/ha) was 6.0. The ECHORC herbicidal rating ([4]; 0.0320 kg/ha) was 9.0, the ECHORC herbicidal rating ([4]; 0.0620 kg/ha) was 9.0 and the ECHORC herbicidal rating ([4]; 0.1250 kg/ha) was 9.0. The ECHORC herbicidal rating ([4]; 0.2500 kg/ha) was 9.0, the CYPIR herbicidal rating (Cyperus iria; 0.0320 kg/ha) was 9.0 and the CYPIR herbicidal rating (Cyperus iria; 0.0620 kg/ha) was 9.0. The CYPIR herbicidal rating (Cyperus iria; 0.1250 kg/ha) was 9.0 and the CYPIR herbicidal rating (Cyperus iria; 0.2500 kg/ha) was 9.0.
`Cc1ccc(CS(=O)(=O)NC(=O)c2nsc3ccc(-n4c(=O)cc(C(F)(F)F)n(C)c4=O)cc23)cc1` [Example 464, 1,2-Benzisothiazole-3-carboxamide, 5-[3,6-dihydro-3-methyl-2,6-dioxo-4-(trifluoromethyl)-1(2H)-pyrimidinyl]-N-[(p-methylbenzyl)sulfonyl]-] was tested, and the “ORYSAT herbicidal rating” value ([1]; 0.0320 kg/ha) was 0.0, the “ORYSAT herbicidal rating” value ([1]; 0.0620 kg/ha) was 2.0 and the “ORYSAT herbicidal rating” value ([1]; 0.1250 kg/ha) was 2.0. The “ORYSAT herbicidal rating” value ([1]; 0.2500 kg/ha) was 4.0, the CYPSE herbicidal rating ([2]; 0.0320 kg/ha) was 0.0 and the CYPSE herbicidal rating ([2]; 0.0620 kg/ha) was 0.0. It also gave a CYPSE herbicidal rating ([2]; 0.1250 kg/ha) of 0.0, a CYPSE herbicidal rating ([2]; 0.2500 kg/ha) of 7.0 and an MOOVA herbicidal rating ([3]; 0.0320 kg/ha) of 7.0. It also gave an MOOVA herbicidal rating ([3]; 0.0620 kg/ha) of 9.0, an MOOVA herbicidal rating ([3]; 0.1250 kg/ha) of 9.0 and an MOOVA herbicidal rating ([3]; 0.2500 kg/ha) of 6.0. For the same compound, the SAGPY herbicidal rating (Sagittaria pygmaea, L.; 0.0320 kg/ha) was 0.0, the SAGPY herbicidal rating (Sagittaria pygmaea, L.; 0.0620 kg/ha) was 0.0 and the SAGPY herbicidal rating (Sagittaria pygmaea, L.; 0.1250 kg/ha) was 6.0. It also gave an SAGPY herbicidal rating (Sagittaria pygmaea, L.; 0.2500 kg/ha) of 4.0, an ECHORC herbicidal rating ([4]; 0.0320 kg/ha) of 6.0 and an ECHORC herbicidal rating ([4]; 0.1250 kg/ha) of 6.0. The ECHORC herbicidal rating ([4]; 0.2500 kg/ha) was 9.0, the CYPIR herbicidal rating (Cyperus iria; 0.0320 kg/ha) was 0.0 and the CYPIR herbicidal rating (Cyperus iria; 0.0620 kg/ha) was 3.0. For the same compound, the CYPIR herbicidal rating (Cyperus iria; 0.1250 kg/ha) was 3.0 and the CYPIR herbicidal rating (Cyperus iria; 0.2500 kg/ha) was 5.0.
For `Cc1ccccc1CS(=O)(=O)NC(=O)c1nsc2ccc(-n3c(=O)cc(C(F)(F)F)n(C)c3=O)cc12` [Example 465, 1,2-Benzisothiazole-3-carboxamide, 5-[3,6-dihydro-3-methyl-2,6-dioxo-4-(trifluoromethyl)-1(2H)-pyrimidinyl]-N-[(o-methylbenzyl)sulfonyl]-], the “ORYSAT herbicidal rating” value ([1]; 0.0320 kg/ha) was 2.0, the “ORYSAT herbicidal rating” value ([1]; 0.0620 kg/ha) was 3.0 and the “ORYSAT herbicidal rating” value ([1]; 0.1250 kg/ha) was 4.0. The “ORYSAT herbicidal rating” value ([1]; 0.2500 kg/ha) was 5.0, the CYPSE herbicidal rating ([2]; 0.0320 kg/ha) was 0.0 and the CYPSE herbicidal rating ([2]; 0.0620 kg/ha) was 4.0. For the same compound, the CYPSE herbicidal rating ([2]; 0.1250 kg/ha) was 7.0, the CYPSE herbicidal rating ([2]; 0.2500 kg/ha) was 9.0 and the MOOVA herbicidal rating ([3]; 0.0320 kg/ha) was 2.0. The MOOVA herbicidal rating ([3]; 0.0620 kg/ha) was 3.0, the MOOVA herbicidal rating ([3]; 0.1250 kg/ha) was 6.0 and the MOOVA herbicidal rating ([3]; 0.2500 kg/ha) was 9.0. The SAGPY herbicidal rating (Sagittaria pygmaea, L.; 0.0320 kg/ha) was 2.0, the SAGPY herbicidal rating (Sagittaria pygmaea, L.; 0.0620 kg/ha) was 5.0 and the SAGPY herbicidal rating (Sagittaria pygmaea, L.; 0.1250 kg/ha) was 5.0. For the same compound, the SAGPY herbicidal rating (Sagittaria pygmaea, L.; 0.2500 kg/ha) was 6.0, the ECHORC herbicidal rating ([4]; 0.0320 kg/ha) was 6.0 and the ECHORC herbicidal rating ([4]; 0.0620 kg/ha) was 6.0. It also gave an ECHORC herbicidal rating ([4]; 0.1250 kg/ha) of 7.0, an ECHORC herbicidal rating ([4]; 0.2500 kg/ha) of 9.0 and a CYPIR herbicidal rating (Cyperus iria; 0.0320 kg/ha) of 0.0. It also gave a CYPIR herbicidal rating (Cyperus iria; 0.0620 kg/ha) of 0.0, a CYPIR herbicidal rating (Cyperus iria; 0.1250 kg/ha) of 3.0 and a CYPIR herbicidal rating (Cyperus iria; 0.2500 kg/ha) of 8.0.
